Laboratory results published in US11208475B1, “Methods and compositions for treating inflammatory or autoimmune diseases or conditions using serotonin receptor activators” (Flagship Pioneering Innovations V, Inc., priority 2018, dated 2021).

The compounds below were run on macrophages (assay: IL-8 secretion by macrophages incubated with serotonin receptor agonists (bead-based immunoassay)). Conditions: human CD14+ monocyte-derived macrophages (M-CSF), compound 1 μM overnight, supernatant.
Format: cell-based
Description: CD14+ monocytes were isolated from human PBMCs using negative magnetic bead selection (Stemcell Technologies) on day 0. Cells were cultured with M-CSF to differentiate monocytes to macrophages. On day 6, cells were treated with LP44 (high affinity 5-HT7 agonist), BW 723C86 hydrochloride (5-HT2B agonist), MK 212 hydrochloride (5-HT2C agonist) (Sigma-Aldrich), at concentrations 1 μM and 10 μM overnight. Supernatant was collected and bead-based immunoassays (Biolegend) were performed to detect changes in cytokine secretion.
Across multiple human donors, secretion of the inflammatory cytokine, IL8, by macrophages was decreased after addition of each of the HTR2B, HTR2C, and HTR7 agonists, as show in Table 17 below.

Row | SMILES | Fold change of IL-8 (Normalized to Macs + LPS with no compound treatment)
1 | Clc1cncc(N2CCNCC2)n1 [MK212] | 0.502
2 | CSc1ccccc1N1CCN(CCCCCC(=O)NC2CCCc3ccccc32)CC1 (stereo not drawn) [LP44] | 0.340
3 | CC(N)Cc1c[nH]c2ccc(OCc3cccs3)cc12.Cl (stereo not drawn) [BW723086] | 0.693

Same assay, conditions: human CD14+ monocyte-derived macrophages (M-CSF), compound 10 μM overnight, supernatant

Row | SMILES | Fold change of IL-8 (Normalized to Macs + LPS with no compound treatment)
4 | Clc1cncc(N2CCNCC2)n1 [MK212] | 0.484
5 | CSc1ccccc1N1CCN(CCCCCC(=O)NC2CCCc3ccccc32)CC1 (stereo not drawn) [LP44] | 0.427
6 | CC(N)Cc1c[nH]c2ccc(OCc3cccs3)cc12.Cl (stereo not drawn) [BW723086] | 0.527
